Laboratory results reported in patent US20080171705A1, “METHODS OF INDUCING AND TREATING VASCULAR DISEASE” (priority 2007, published 2008).

Experiments:
[1] = Sirolimus whole blood pharmacokinetics (LC-MS/MS); format: in vivo, apoE^−/− mice; conditions: i.p., daily, 0.5, 1.0 and 4.0 mg/kg
Description: (§1) Upon initiation of the pro-atherogenic diet and osmotic mini-pump implantation, mice were randomly assigned to four groups; namely, vehicle control, rapamycin or sirolimus 0.5 mg/kg, sirolimus 1.0 mg/kg and sirolimus 4.0 mg/kg body weight. The defined amount of sirolimus was dissolved in ethanol, brought up in a vehicle comprising 0.2 percent Sodium carboxymethylcellulose and 0.25 percent tween 80) and administrated to mice (i.p., daily).
Sirolimus was quantitated using liquid-liquid extraction and reverse-phase liquid chromatography mass spectrometry (LC-MS/MS). Briefly, 100 μl of mouse whole blood sample underwent protein precipitation with 5 percent Methanol/Zinc sulfate solution containing the internal standard ascomycin. After centrifugation of the resulting solution, the liquid mixture proceeded with liquid-liquid extraction with 1-chlorobutane. The combined organic extract was then blown down to dryness and reconstituted with 50:50 Methanol:20 mM ammonium acetate solution. The samples were analyzed on API-5000 using C18 reverse-phase chromatography in Multiple Reaction Monitoring (MRM) mode using atmospheric pressure chemical ionization (APCI) approach. The calibration standard curve results for sirolimus in mouse whole blood were acceptable from 0.5 ng/ml to 10,000 ng/ml with correlation coefficient of 0.998. The percent bias for the calibration standards ranged from about […] to about 8.0 percent.
The regimen of sirolimus administration (i.p., daily, 0.5, 1.0, and 4.0 mg/kg) results in significant increase of whole blood sirolimus levels in the apoE^−/− mice within 24 hours post injection. The blood drug levels reached peak level at 1 hour post injection, dropped to approximately 30 to 40 percent at 6 hours and remained at trace level at 24 hours.

apoE^−/− mice [2] = test: Health status, body weight and re-suturing incidence post mini-pump surgery; format: in vivo
Text: (§2) ApoE^−/− mice (backcrossed ten times to the C57BL/6 background) were purchased from The Jackson Laboratory. The mice were kept on a twelve-hour light/twelve-hour dark regimen upon arrival. All animal experiments were approved by the IACUC of the Consumer & Personal Product Worldwide, in accordance with AAALAC guidelines. Eight week old, male apoE^−/− mice were fed a normal mouse-chow diet (RP5001; PMI Feeds Inc., St. Louis, Mo.) and acclimated for one week before switching to a pro-atherogenic high fat, high cholesterol, diet (“Western diet”, 21% fat, 0.2% cholesterol, diet No. 88137, Harlan-Teklad, Madison, Wis.) for four weeks.
(§3) Upon initiation of the pro-atherogenic diet, Alzet osmotic mini-pumps (Model 2004; ALZA Scientific Products, Mountain View, Calif.) were implanted into the apoE^−/− mice subcutaneously. The mini-pumps were loaded with angII (EMD Biosciences, San Diego, Calif.) at the delivery rate of 1,000 ng/min/kg for twenty-eight days. The mice were anesthetized using isoflurane for the implantation of the mini-pumps. Small incisions in the lower back of the neck were made and the mini-pumps were inserted into the subcutaneous space of the mice. The incisions were then closed using sterile staplers. Triple antibiotic ointment was applied to each incision post surgery. The mice on the high fat, high cholesterol diet were sacrificed by CO2 inhalation twenty-eight days post mini-pump implantation as is explained in detail subsequently.
as §1
The data is depicted as re-suturing incedince post surgery per group size. A clear increase of the suture index is observed in response to sirolimus administration in a dose dependent manner.

[3] = Plasma lipids (total cholesterol, triglycerides, LDL and HDL cholesterol); format: in vivo, apoE^−/− mice
Text: as §2, §3, §1
Plasma triglyceride and total cholesterol levels were determined via an automated enzymatic technique (Equal Diagnostic Inc., Exton, Pa.). Mouse lipoproteins were separated by fast protein liquid chromatography (FPLC) analysis of plasma using 2 Superose 6 columns in series (Pharmacia Biotech Inc., Piscataway, N.J.). Aliquots of mouse plasma (100 μl) were injected onto the column, separated with a buffer containing 0.15 M NaCl, 0.01 M Na2HPO4, and 0.1 mM EDTA (pH 7.5) at a flow rate of 0.5 mL/min, and analyzed for lipids.

apoE^−/− mice [4] = test: Abdominal aortic adventitia lesion analysis (incidence and severity); format: in vivo; conditions: 1 of 22 mice; vehicle control 30 percent, 3 of 10 mice
Text: ApoE^−/− mice (backcrossed ten times to the C57BL/6 background) were purchased from The Jackson Laboratory. The mice were kept on a twelve-hour light/twelve-hour dark regimen upon arrival. All animal experiments were approved by the IACUC of the Consumer & Personal Product Worldwide, in accordance with AAALAC guidelines. Eight week old, male apoE^−/− mice were fed a normal mouse-chow diet (RP5001; PMI Feeds Inc., St. Louis, Mo.) and acclimated for one week before switching to a pro-atherogenic high fat, high cholesterol, diet (“Western diet”, 21% fat, 0.2% cholesterol, diet No. 88137, Harlan-Teklad, Madison, Wis.) for four weeks. […]
The abdominal aorta was subjected to abdominal aortic adventitia lesion analysis. […] Classification of the adventitia lesions was determined according to the scale based on the gross appearance of the aorta reported by Daugherty et al. Briefly, I: Dilated lumen in the supra-renal region of the aorta with no thrombus; II: Remodeled tissue in the supra-renal region that frequently contains thrombus; III: A pronounced bulbous form of type II that contains thrombus; IV: A form in which there are multiple adventitia lesions containing thrombus, some overlapping, in the suprarenal area of the aorta.

CO[C@H]1C[C@@H]2CC[C@@H](C)[C@@](O)(O2)C(=O)C(=O)N2CCCC[C@H]2C(=O)O[C@H]([C@H](C)C[C@@H]2CC[C@@H](O)[C@H](OC)C2)CC(=O)[C@H](C)/C=C(\C)[C@@H](O)[C@@H](OC)C(=O)[C@H](C)C[C@H](C)/C=C/C=C/C=C/1C [sirolimus]
blood drug level at 6 hours (relative to peak level) ([1]; 6 hours post injection): 30 to 40%
blood drug level at 24 hours ([1]; 24 hours post injection): trace level
time of peak whole blood drug level post injection ([1]; whole blood): 1 h
body weight (apoE^−/− mice [2]; all 3 sirolimus treated groups, no statistical significance): trend of decreased body weight
health status (apoE^−/− mice [2]; i.p., daily, 0.5, 1.0 and 4.0 mg/kg, angII infusion, high fat, high cholesterol diet): not overtly affected
re-suturing incidence post surgery (wound healing) (apoE^−/− mice [2]; post mini-pump implantation, dose dependent): increased incidence of re-suturing
elevation of LDL cholesterol ([3]; all sirolimus treated mice): > 60%
increase of plasma total cholesterol level vs vehicle control ([3]; i.p., daily, 0.5, 1.0 and 4.0 mg/kg, angII, Western diet, 28 days): 44 to 50%
increase of HDL cholesterol ([3]; mice receiving sirolimus): 55 to 81%
triglyceride ([3]; regardless of the dosage employed): trend of elevated triglyceride
incidence of abdominal aortic adventitia lesion (apoE^−/− mice [4]): 4.5%
